# Test results: patent US8552161B2, “Saponin compounds, methods of preparation thereof, use thereof and pharmaceutical compositions” (Uniwersytet W Bialymstoku, priority 2009, dated 2013)
# What was measured:
# [1] = system: cervical carcinoma cell line HeLa; assay: Calcein AM cytotoxicity assay, HeLa; format: cell-based; conditions: 72 h, means ± SD, three independent experiments in triplicate
# leukemia cells (CEM) = assay: Western blot analysis of apoptosis related proteins; format: cell-based; conditions: 24 h
# Experimental: The cells were seeded in a density 2.2×10^4 cells/cm^2 using culture medium in 100-mm culture dishes. Immediately the cells were treated by novel saponins: 3 (1; 2.5; 5 μM), 6 (0.1; 0.25; 0.5 μM) and 7 (5; 7.5; 10 μM). DMSO was used as a vehicle for controls. After 24 h treatment, the cells were washed three times with cold PBS (10 mM, pH 7.4) and lysed in ice-cold protein extract RIPA buffer (20 mM Tris-HCl, pH 7.4, 5 mM EDTA, 2 mM EGTA, 100 mM NaCl, 2 mM NaF, 0.2% Nonidet P-40, 30 mM PMSF, 1 mM DTT, […] of aprotinin and leupeptin). The lysate was collected into microfuge tube and incubated on ice for 1 h. It was then cleared by centrifugation at 10,000×g for […] at 4° C., and supernatant was collected, aliquoted, and stored at −80° C. Proteins in lysates were quantified by the Bradford method and then diluted with Laemmli electrophoresis buffer. Proteins were then separated on 10% or 12% SDS-polyacrylamide gels, transferred onto nitrocellulose membranes (Bio-Rad Laboratories, CA, USA) and stained with Ponceau S to check equal protein loading. The membranes were blocked with 5% (w/v) non-fat dry milk and 0.1% Tween-20 in PBS for 2 h and probed with the specific primary antibodies overnight. After washing in PBS and PBS with 0.1% Tween-20, the membranes were probed with horseradish peroxidase-conjugated secondary antibodies and visualized with chemiluminescent detection reagent West Pico Supersignal (Thermo Fisher Scientific, Rockford, USA). To confirm equal protein loading, immunodetection was performed with the anti-α-tubulin monoclonal antibody. The experiments were repeated three times. The protein expressions in treated cells were compared to untreated controls.
# [2] = system: human glioblastoma cell line T98; assay: Calcein AM cytotoxicity assay, T98; format: cell-based; conditions: 72 h, means ± SD, three independent experiments in triplicate
# Experimental: Stock solutions (10 mmol/l) of the tested compounds were prepared by dissolving relevant quantity of the substance in DMSO. Dulbecco's modified Eagle's medium (DMEM, RPMI 1640, F-12 medium), fetal bovine serum (FBS), L-glutamine, penicillin, streptomycin were purchased from Sigma (MO, USA). Calcein AM was obtained from Molecular Probes (Invitrogen Corporation, CA, USA).
# The screening cell lines (T-lymphoblastic leukaemia cell line CEM, breast carcinoma cell line MCF-7, cervical carcinoma cell line HeLa, human glioblastoma cell line T98, human malignant melanoma G-361, human osteogenic sarcoma cell line HOS, carcinomic human alveolar basal epithelial cells A549, human colon carcinoma cells HCT 116 and human fibroblasts BJ) were obtained from the American Type Culture Collection (Manassas, Va., USA). All cell lines were cultured in DMEM medium (Sigma, Mo., USA). Medium was supplemented with 10% heat-inactivated fetal bovine serum, 2 mmol/l L-glutamine and 1% penicillin-streptomycin. The cell lines were maintained under standard cell culture conditions at 37° C. and 5% CO2 in a humid environment. Cells were subcultured twice or three times a week using the standard trypsinization procedure.
# Cytotoxic activities of the novel compounds, obtained according to this invention, were tested in vitro against following cancer cell lines: T-lymphoblastic leukemia cell line CEM; breast carcinoma cell line MCF7, lung carcinoma cell line A549, cervical carcinoma cell line HeLa, malignant melanoma cell line G-361, osteosarcoma cell line HOS, human glioblastoma cell line T98, human colon carcinoma cells HCT 116 and normal human fibroblasts BJ. All cell lines were cultured in DMEM medium (Sigma, Mo., USA) supplemented with 10% fetal calf serum, 2 mM glutamine, 100 U/ml penicillin and 100 μg/ml streptomycin, at 37° C. in a fully humidified atmosphere containing 5% CO2. Suspensions of these lines (ca. 1.0×10^5 cells/ml) were placed in 96-well microtitre plates and after 3 h of stabilization the tested compounds were added in serially diluted concentrations. Saponins were dissolved in dimethylsulfoxide (DMSO) before addition to cultures. Control cultures were treated with DMSO alone. The final concentration of DMSO in the reaction mixtures never exceeded 0.6%. Four-fold dilutions of the intended test concentration were added at time zero in 20 μl aliquots to the microtitre plate wells. Usually, each test compound was evaluated at six 4-fold dilutions and in routine testing; the highest well concentration was 50 μM, although this varied in a few cases, depending on the test compound. After 72 h of culture, the cells were incubated with Calcein AM solution (Molecular Probes) for 1 h. The fluorescence of viable cells was quantified using a Fluoroscan Ascent instrument (Microsystems). The percentage of surviving cells in each well was calculated from the equation […]=(ODdrug exposed well/mean ODcontrol wells)×100%. The IC50 value, the drug concentration lethal to 50% of the tumour cells, was calculated from the obtained dose-response curves.
# [3] = system: malignant melanoma cell line G-361; assay: Calcein AM cytotoxicity assay, G-361; format: cell-based, human; conditions: 72 h, means ± SD, three independent experiments in triplicate
smiles,measurement,setting,value
"C/C=C/C(=O)OC[C@@H](C)[C@@]1(O)[C@@H](O[C@@H]2OC[C@H](O)[C@H](O[C@@H]3OC[C@@H](O)[C@H](O)[C@H]3OC(=O)c3ccc(OC)cc3)[C@H]2OC(C)=O)C[C@H]2[C@@H]3CC=C4C[C@@H](O)CC[C@]4(C)[C@H]3CC[C@@]21C [Compound 7, (20R)-21-O-[(E)-but-2-enoyl]-20-methylpregn-5-ene-3β,16β,17α,21-tetraol 16-O-{2-O-(4-methoxybenzoyl)-β-D-xylopyranosyl-(1→3)-2′-O-acetyl-α-L-arabinopyranoside}]",IC50,[1],1940 ± 50 nM
same,PARP (Western blot),leukemia cells (CEM); dose-dependent (FIG. 5),cleavage of PARP
same,antiapoptotic Bcl-2 protein,leukemia cells (CEM); dose-dependent (FIG. 5),increased
same,caspase-3 (Western blot),leukemia cells (CEM); dose-dependent (FIG. 5),accumulation of caspase-3
same,expression of tumour suppressor protein p53,leukemia cells (CEM); dose-dependent (FIG. 5),enhanced expression
same,phosphorylation of pRb S780,leukemia cells (CEM); same concentrations (FIG. 5),increase of phosphorylation of pRb S780
same,IC50,[2],940 ± 20 nM
same,IC50,[3],890 ± 90 nM
